Assay results published in patent US7161032B2, “Sulfonamide derivatives, insecticides for agricultural and horticultural use, and usage thereof” (Nihon Nohyaku Co., Ltd., priority 2002, dated 2007).

Key:
Format in all cases: in vivo
[1] = tested on: Common Cutworm (Spodoptera litura); test: Insecticidal effect on common cutworm (Test Example 2): cabbage leaf piece immersed in 50 ppm liquid chemical; settings: common cutworm (Spodoptera litura) second-instar larvae, 8 days after inoculation, 25° C.
How it was run: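 Cabbage leaf pieces (cv. Shikidori) dipped ~30 s in formulated compound at 50 ppm and air-dried. Second-instar larvae added, kept at 25° C. Dead and alive counted at 8 days to give % mortality, scored against a criterion scale; three groups of 10 insects.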

[2] = tested on: Diamond Back Moth (Plutella xylostella); test: Insecticidal effect on diamond back moth (Test Example 1): egg-bearing Chinese cabbage seedling immersed in 50 ppm liquid chemical
How it was run: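 Seedlings bearing 2-day-old eggs dipped about 30 s in 50 ppm formulated compound, air-dried, held at 25° C. Hatched larvae counted 6 days after immersion; mortality calculated and graded by criterion. Triplicate groups of 10 insects.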

[3] = tested on: Smaller Tea Tortrix (Adoxophyes sp.); test: Insecticidal effect on smaller tea tortrix (Test Example 3): tea leaves immersed in 50 ppm liquid chemical; settings: smaller tea tortrix (Adoxophyes sp.) larvae, 8 days after inoculation, 25° C., humidity 70%
How it was run: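 Tea leaves dipped about 30 seconds in 50 ppm compound preparation, air-dried, then infested with larvae and held at 25° C and 70% humidity. Dead and alive counted 8 days after inoculation; triplicate groups of 10 insects.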

SMILES | Insecticidal effect (mortality grade), Test Example 2 [1] | Insecticidal effect (mortality grade), Test Example 1 [2] | Insecticidal effect (mortality grade), Test Example 3 [3]
CCN(CC)S(=O)(=O)CC(C)(C)NC(=O)c1c(I)cccc1C(=O)Nc1ccc(C(F)(F)C(F)(F)F)cc1C [1-302] | A (Mortality 100%) | A (Mortality 100%) | A (Mortality 100%)
CCNS(=O)(=O)CC(C)NC(=O)c1c(I)cccc1C(=O)Nc1ccc(Cl)c(Cl)c1Cl (stereo not drawn) [1-266] | C (Mortality 89–80%) | A (Mortality 100%) | E (Mortality less than 50%)
CCN(CC)C(=O)CNS(=O)(=O)CC(C)NC(=O)c1c(I)cccc1C(=O)Nc1ccc(C(F)(C(F)(F)F)C(F)(F)F)cc1C (stereo not drawn) [1-105] | A (Mortality 100%) | A (Mortality 100%) | E (Mortality less than 50%)
Cc1cc(C(F)(C(F)(F)F)C(F)(F)F)ccc1NC(=O)c1cccc(I)c1C(=O)NC(C)(C)CS(=O)(=O)N1CCS(=O)(=O)CC1 [1-60] | A (Mortality 100%) | A (Mortality 100%) | E (Mortality less than 50%)
Cc1cc(C(C(F)(F)F)C(F)(F)F)ccc1NC(=O)c1cccc(I)c1C(=O)NC(C)CS(N)(=O)=O (stereo not drawn) [1-342] | A (Mortality 100%) | A (Mortality 100%) | A (Mortality 100%)
CCN(CC)S(=O)(=O)CC(C)NC(=O)c1c(I)cccc1C(=O)Nc1ccc(Cl)c(Cl)c1Cl (stereo not drawn) [1-267] | C (Mortality 89–80%) | A (Mortality 100%) | E (Mortality less than 50%)
Cc1cc(C(F)(C(F)(F)F)C(F)(F)F)ccc1NC(=O)c1cccc(I)c1C(=O)NC(C)CS(=O)(=O)NCc1ccccc1[N+](=O)[O-] (stereo not drawn) [1-28] | A (Mortality 100%) | A (Mortality 100%) | A (Mortality 100%)
CCSCCNS(=O)(=O)CC(C)(C)NC(=O)c1c(I)cccc1C(=O)Nc1ccc(C(F)(F)C(F)(F)F)cc1C [1-307] | A (Mortality 100%) | A (Mortality 100%) | A (Mortality 100%)
Cc1cc(C(F)(C(F)(F)F)C(F)(F)F)ccc1NC(=O)c1cccc(I)c1C(=O)NC(C)CS(=O)(=O)N[C@@H](C)c1ccccc1 (stereo partly drawn) [1-46] | A (Mortality 100%) | A (Mortality 100%) | A (Mortality 100%)
CCS(=O)(=O)CCNS(=O)(=O)CC(C)(C)NC(=O)c1c(I)cccc1C(=O)Nc1ccc(C(F)(F)C(F)(F)F)cc1C [1-309] | A (Mortality 100%) | A (Mortality 100%) | A (Mortality 100%)
Cc1cc(C(F)(C(F)(F)F)C(F)(F)F)ccc1NC(=O)c1cccc(I)c1C(=O)NC(C)CS(=O)(=O)NCc1ccccc1F (stereo not drawn) [1-23] | A (Mortality 100%) | A (Mortality 100%) | A (Mortality 100%)
Cc1cc(C(F)(C(F)(F)F)C(F)(F)F)ccc1NC(=O)c1cccc(I)c1C(=O)NC(C)(C)CS(=O)(=O)N1CCSCC1 [1-58] | A (Mortality 100%) | A (Mortality 100%) | E (Mortality less than 50%)
Cc1cc(C(F)(C(F)(F)F)C(F)(F)F)ccc1NC(=O)c1cccc(I)c1C(=O)NC(C)CS(=O)(=O)N1CCC(=O)CC1 (stereo not drawn) [1-67] | E (Mortality less than 50%) | A (Mortality 100%) | E (Mortality less than 50%)
CCNS(=O)(=O)CC(C)NC(=O)c1c(I)cccc1C(=O)Nc1ccc(C(F)(C(F)(F)F)C(F)(F)F)cc1C (stereo not drawn) [1-4, N^2-(2-ethylsulfamoyl-1-methylethyl)-3-iodo-N^1-{2-methyl-4-[1,2,2,2-tetrafluoro-1-(trifluoromethyl)ethyl]phenyl}phthalamide] | A (Mortality 100%) | A (Mortality 100%) | A (Mortality 100%)
CCNS(=O)(=O)CCCC(C)(C)NC(=O)c1c(I)cccc1C(=O)Nc1ccc(C(F)(C(F)(F)F)C(F)(F)F)cc1C [1-200] | A (Mortality 100%) | A (Mortality 100%) | A (Mortality 100%)
CCCNS(=O)(=O)CC(C)NC(=O)c1c(Br)cccc1C(=O)Nc1ccc(C(F)(C(F)(F)F)C(F)(F)F)cc1C (stereo not drawn) [1-215] | A (Mortality 100%) | A (Mortality 100%) | A (Mortality 100%)
COC(=O)N1CCN(S(=O)(=O)CC(C)NC(=O)c2c(I)cccc2C(=O)Nc2ccc(C(F)(C(F)(F)F)C(F)(F)F)cc2C)CC1 (stereo not drawn) [1-66] | A (Mortality 100%) | A (Mortality 100%) | A (Mortality 100%)
Cc1cc(C(F)(C(F)(F)F)C(F)(F)F)ccc1NC(=O)c1cccc(I)c1C(=O)NC(C)CS(=O)(=O)N1CCSCC1 (stereo not drawn) [1-55] | A (Mortality 100%) | A (Mortality 100%) | A (Mortality 100%)
